Structures can show the parent of a compound that is named as a salt.
Experiments:
[1] = biological target: T1, recombinant human arginase 2 (Homo sapiens, UniProt P78540); test: Human arginase inhibition assay (colorimetric urea detection), arginase 2; format: biochemical; settings: IC50 class, hydrochloride salts, 1 h at 37° C., pH 7.4, 10 mM L-arginine, 200 μM MnCl2, read-out: Activity Class (ARG II)
T1 construct: made in house; host or cells: E. coli
T1 sequence (P78540 23-354): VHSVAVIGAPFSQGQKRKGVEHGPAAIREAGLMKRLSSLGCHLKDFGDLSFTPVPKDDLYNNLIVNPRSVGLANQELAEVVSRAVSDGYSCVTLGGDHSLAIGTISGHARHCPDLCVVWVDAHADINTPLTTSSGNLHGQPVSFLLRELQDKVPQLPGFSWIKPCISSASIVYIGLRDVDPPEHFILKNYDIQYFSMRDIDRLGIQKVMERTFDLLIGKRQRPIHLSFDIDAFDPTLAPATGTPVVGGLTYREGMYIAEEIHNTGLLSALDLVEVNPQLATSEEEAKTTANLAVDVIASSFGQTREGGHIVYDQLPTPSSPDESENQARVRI
Description: (§1) The inhibitory activities of the compounds of the invention were assessed using recombinant human arginase 1 and 2. Both enzymes were biosynthesized using a prokaryotic expression system (E. coli) and purified by fast protein liquid chromatography (FPLC). The compounds were screened in 96-well plates at the total reaction volume of 100 μL. Briefly, recombinant enzymes were incubated with the tested compounds for 1 h at 37° C. in the reaction buffer (100 mM sodium phosphate buffer, 130 mM NaCl, 1 mg/mL BSA, pH 7.4) containing substrate (10 mM L-arginine hydrochloride) and cofactor (200 μM MnCl2). The assay is based on the detection of urea, which is generated during the conversion of L-arginine into L-ornithine catalyzed by ARG1 or ARG2. The colorimetrically detectable product was developed by adding a mixture of reagent A (4 mM oPA, 50 mM boric acid, 1 M sulfuric acid, 0.03% Brij-35) and reagent B (4 mM NED, 50 mM boric acid, 1 M sulfuric acid, 0.03% Brij-35) in equal proportions. The absorbance for each well was measured at 515 nm and the enzyme inhibition was calculated. The urea production in the absence of any tested compound was considered as maximal enzyme activity. The absorbance at the absence of arginase (background) was subtracted from all the values. Normalized values were analyzed using GraphPad Prism 7.0 software by plotting inhibition curves and determining the IC50 values.
(§2) The inhibitory activity toward humane arginase 1 of the hydrochloride salts of the exemplary compounds according to the invention is presented in Table 5.
The inhibitory activity toward humane arginase 2 of the hydrochloride salts of the selected exemplary compounds according to the invention is presented in Table 6.

[2] = biological target: T2, recombinant human arginase 1 (Homo sapiens, UniProt P05089); test: Human arginase inhibition assay (colorimetric urea detection), arginase 1; format: biochemical; settings: IC50 class, hydrochloride salts, 1 h at 37° C., pH 7.4, 10 mM L-arginine, 200 μM MnCl2, read-out: Activity Class (ARG I)
T2 construct: made in house; host or cells: E. coli
T2 sequence (P05089 1-322): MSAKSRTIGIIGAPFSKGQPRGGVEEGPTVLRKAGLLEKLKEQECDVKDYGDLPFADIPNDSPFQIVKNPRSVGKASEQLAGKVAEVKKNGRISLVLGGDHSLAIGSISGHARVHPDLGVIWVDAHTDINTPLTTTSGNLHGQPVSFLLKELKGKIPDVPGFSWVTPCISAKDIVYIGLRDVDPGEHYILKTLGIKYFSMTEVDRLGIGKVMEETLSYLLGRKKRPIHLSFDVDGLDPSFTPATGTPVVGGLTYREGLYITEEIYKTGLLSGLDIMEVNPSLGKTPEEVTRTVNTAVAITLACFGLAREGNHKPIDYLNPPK
Description: as §1, §2

| Structure (SMILES) | IC50 [1] [nM] | IC50 [2] [nM] |
| --- | --- | --- |
| C[C@H](N)C(=O)N1C[C@@H](CCB(O)O)C[C@](N)(C(=O)O)[C@@H]1C [Example 30, (2S,3R,5S)-1-(L-alanyl)-3-amino-5-(2-boronoethyl)-2-methylpiperidine-3-carboxylic acid dihydrochloride] | 500 to 999 | 1 to 249 |
| NCCCC[C@H](N)C(=O)N1C[C@@H](CCB(O)O)C[C@](N)(C(=O)O)C1 [Example 7, (3R,5S)-1-(L-Lysyl)-3-amino-5-(2-boronoethyl)piperidine-3-carboxylic acid trihydrochloride] | 500 to 999 | 1 to 249 |

Results, then the compound that gave them:

| IC50 [1] [nM] | IC50 [2] [nM] | Structure (SMILES) |
| --- | --- | --- |
| 500 to 999 | 250 to 499 | C[C@H](N)C(=O)N1C[C@@H](CCB(O)O)C[C@](N)(C(=O)O)C1 [Example 1, (3R,5S)-1-(L-Alanyl)-3-amino-5-(2-boronoethyl)piperidine-3-carboxylic acid dihydrochloride] |
| 500 to 999 | 1 to 249 | N[C@@H](Cc1c[nH]cn1)C(=O)N1C[C@@H](CCB(O)O)C[C@](N)(C(=O)O)C1 [Example 13, (3R,5S)-1-(L-Histidyl)-3-amino-5-(2-boronoethyl)piperidine-3-carboxylic acid trihydrochloride] |
| 1000 to 10000 | 1 to 249 | N[C@@H](Cc1ccccc1)C(=O)N1C[C@@H](CCB(O)O)C[C@](N)(C(=O)O)C1 [Example 11, (3R,5S)-1-(L-Phenylalanyl)-3-amino-5-(2-boronoethyl)piperidine-3-carboxylic acid dihydrochloride] |
